Laboratory results taken from patent publication US20240417687A1, “THYMIC CELLS AND METHODS OF MAKING” (Thymmune Therapeutics, Inc., priority 2021, published 2024).

Tested on: residual undifferentiated pluripotent cells
Experiment: Teratoma formation after transplantation of TEP populations treated with YM155
Assay type: in vivo
Conditions: TEP population treated prior to transplantation versus not treated
Protocol: An important safety issues to address in iPSC-derived cell therapy products was the possible presence of residual undifferentiated pluripotent cells in the end. Such iPSCs in the product can give rise to teratomas. […] YM155, a Survivin inhibitor and PluriSIn-1, a stearoyl-CoA desaturase inhibitor was tested.

With `COCCn1c2c([n+](Cc3cnccn3)c1C)C(=O)c1ccccc1C2=O` [YM155] the teratomas in vivo was “smaller teratomas”.
